Patent publication US12343321B1, “Method for ameliorating or avoiding the adverse effects of exogenous gonadotropins on reproductive performance” (CHINA AGRICULTURAL UNIVERSITY, priority 2024, dated 2025)
Entries after “also recorded” stand apart in the source; their conditions may differ. Marks after values point to notes of the source that are not given here.

Key:
pERK = assay: Molecular detection of pERK in mouse endometrium after eCG/hCG treatment; type: in vivo; settings: day 4 after vaginal plug, NAC 200 mg/kg BW i.p. daily, BGJ398 100 μM, 5 μL via uterine horn, or NAC 100 + VA 100 mg/kg BW
From the text: (§1) 2.2 Molecular Regulation Effect of N-Acetylcysteine in Combination with Vitamin A on Alleviating Uterine Receptivity Decrease Induced by Gonadotropin Treatments
(§2) In the animal experiment, ICR female mice (SPF grade, 8 weeks old, 28-30 g) were selected and randomized into groups of 10-18, including normal control group (CON), superovulation stimulation group (eCG/hCG), superovulation stimulation and BGJ398 group (eCG/hCG+BGJ398), superovulation stimulation and NAC single administration group (eCG/hCG+NAC), superovulation stimulation and VA single administration group (eCG/hCG+VA), superovulation stimulation and NAC and VA combined administration group (eCG/hCG+NAC+VA). The temperature of the breeding environment was 22° C., 12-h light/dark cycle was performed, and the mice were provided with free access to water and food. After the animals were purchased, they were acclimated for 5-7 days.
(§3) Control group (CON): A female 8-week-old ICR mouse was taken as the research object, subjected to natural estrus, mated with a vasoligated male mouse, and was taken as the control group. The uterus of the mouse was then separated on day 4 after the vaginal plug was observed, namely, when the uterine receptivity was established, and the detection of a plurality of signal molecules was carried out. […]

[1] = test system: ICR female mice treated with eCG/hCG; assay: Live birth after embryo transfer in gonadotropin-treated mice; type: in vivo; settings: for live births compared with control group (exogenous gonadotropin only): 12 embryos transferred on day 4, counted on day of delivery, drugs 200 mg/kg BW total i.p. daily
Method: Superovulation stimulation and BGJ398 group (eCG/hCG+BGJ398): Female 8-week-old ICR mice were taken as the research object and injected with 10 IU eCG and PMSG to induce superovulation, respectively. On day 3 of pregnancy, the mice were injected with 5 μL of FGF receptor inhibitor containing 100 μM BGJ398 inhibitor through the uterine horn. Embryo transfer was then performed on day 4 after the vaginal plug was observed.
Superovulation stimulation and VA single administration group (eCG/hCG+VA): A female 8-week-old ICR mouse was taken as the research object. On the basis of the treatment of the superovulation stimulation group (eCG/hCG), each mouse was intraperitoneally injected with VA at a dose of 200 mg/kg BW daily 5 days prior to the injection of eCG/hCG. Embryo transfer was then performed on day 4 after the vaginal plug was observed. The injection was continued until day 10 of pregnancy.
Superovulation stimulation and NAC and VA combined administration group (eCG/hCG+NAC+VA): A female 8-week-old ICR mouse was taken as the research object. On the basis of the treatment of the superovulation stimulation group (eCG/hCG), each mouse was intraperitoneally injected with a mixture of NAC at a dose of 100 mg/kg BW and VA at a dose of 100 mg/kg BW daily 5 days prior to the injection of eCG. Embryo transfer was then performed on day 4 after the vaginal plug was observed. The injection was continued until day 10 of pregnancy.
Embryo transfer was separately performed on the mice in the CON group, eCG/hCG group, eCG/hCG+BGJ398 group, eCG/hCG+NAC group, eCG/hCG+VA group, and eCG/hCG+NAC+VA group on day 4 of pregnancy, and the mice were then placed in the animal house for normal feeding. On the day of delivery, the number born alive index was counted. […]

[2] = test system: ICR female mice treated with eCG/hCG; assay: Embryo implantation sites after embryo transfer in gonadotropin-treated mice; type: in vivo, mouse; settings: for number of implantation sites compared with control group (exogenous gonadotropin only): 12 embryos transferred on day 4, counted on day 5 of pregnancy, drugs 200 mg/kg BW total i.p. daily, BGJ398 100 μM via uterine horn; for effect on implantation and live birth, alone or in synergy with NAC/VA: 200 mg/kg BW alone, or 100 + 100 mg/kg BW with NAC/VA
From the text: as §2
Superovulation stimulation and BGJ398 group (eCG/hCG+BGJ398): Female 8-week-old ICR mice were taken as the research object and injected with 10 IU eCG and […] to induce superovulation, respectively. On day 3 of pregnancy, the mice were injected with 5 μL of FGF receptor inhibitor containing 100 μM BGJ398 inhibitor through the uterine horn. Embryo transfer was then performed on day 4 after the vaginal plug was observed.
(§4) Superovulation stimulation and NAC single administration group (eCG/hCG+NAC): A female 8-week-old ICR mouse was taken as the research object. On the basis of the treatment of the superovulation stimulation group (eCG/hCG), each mouse was intraperitoneally injected with NAC at a dose of 200 mg/kg BW daily 5 days prior to the injection of eCG. Embryo transfer was then performed on day 4 after the vaginal plug was observed. The injection was continued until day 10 of pregnancy.
as §4, with “VA” for “NAC”, “(eCG/hCG+VA):” for “(eCG/hCG+NAC):”, “eCG/hCG.” for “eCG.”
as §4, with “and VA combined” for “single”, “(eCG/hCG+NAC+VA):” for “(eCG/hCG+NAC):”, “with a mixture of” for “with”, “100 mg/kg BW and VA at a dose of 100” for “200”
The mice in the CON group, eCG/hCG group, eCG/hCG+BGJ398 group, eCG/hCG+NAC group, eCG/hCG+VA group, and eCG/hCG+NAC+VA group were separately in the same cage and mated with a vasoligated male mouse. The vaginal plug was checked at about 8 am in the next morning. The pseudopregnant female mouse whose vaginal plug was observed was ready for transfer. The day when the vaginal plug was observed was taken as day 1, and day 4 was the date of blastocyst transfer. […]
Embryo transfer was separately performed on the mice in the CON group, eCG/hCG group, eCG/hCG+BGJ398 group, eCG/hCG+NAC group, eCG/hCG+VA group, and eCG/hCG+NAC+VA group on day 4 of pregnancy; embryo implantation sites were counted by orbital injection of Chicago blue on day 5 of pregnancy. […]

Gilts = assay: Reproductive performance of gilts in batch farrowing with FTAI (pregnancy rate, farrowing rate); type: in vivo, pig; settings: for Estrus detection rate (%) / Farrowing rate (%) / Pregnancy Rate (%): batch farrowing with FTAI (eCG/GnRH), drugs in feed, 200 mg/kg BW total daily; for female pig farrowing rate compared with batch farrowing with FTAI (control group) / female pig pregnancy rate compared with batch farrowing with FTAI (control group): eCG/GnRH, result in words
From the text: Gilts with the weight of 120-140 kg and the age of 200-250 days were selected for the experiment, which were divided into the batch farrowing with FTAI (CON) group, batch farrowing supplemented with NAC (NAC) group, batch farrowing supplemented with VA (VA) group, batch farrowing with combined administration of NAC and VA (NAC+VA 1:1) group, batch farrowing with combined administration of NAC and VA (NAC+VA […]) group, and batch farrowing with combined administration of NAC and VA (NAC+VA 9:1) group. Each group had 48-55 gilts.
The technical process of batch farrowing of the gilts in the CON group (namely the batch farrowing with FTAI scheme) was as follows: 1) estrus synchronization treatment: the gilt orally taken altrenogest for 18 days; 2) after an interval of 42 h after the estrus synchronization treatment, exogenous gonadotropin eCG was injected to induce follicular development synchronization; 3) after an interval of 80 h after eCG injection, an ovulatio induction drugs (GnRH) was injected. After an interval of 24 h after the injection, a first mating was carried out, and then after an interval of 16 h, a second mating was carried out. Pregnancy examination was then performed and the gilts were fed normally until delivery.
On the basis of the technical process of batch farrowing of the gilts in the CON group, in the NAC group, VA group, and NAC+VA group, NAC at a dose of 200 mg/kg BW, VA at a dose of 200 mg/kg BW, combined addition of NAC (100 mg/kg BW) and VA (100 mg/kg BW), combined addition of NAC (20 mg/kg BW) and VA (180 mg/kg BW), and combined addition of NAC (180 mg/kg BW) and VA (20 mg/kg BW) were separately added into the feed daily 14 days prior to the eCG injection until the end of first pregnancy examination (day 30-32 of pregnancy). The gilts were then fed normally until delivery.
The pregnancy rate of the female pigs was counted through pregnancy examination; the farrowing rate of the female pigs was counted during delivery. The pregnancy rate and the farrowing rate of female pigs from different treatment groups were calculated as follows: Female pig pregnancy rate=pregnant female pig count/mated female pig count×100% Female pig farrowing rate=delivery female pig count/mated female pig count×100%

ERα = assay: Molecular detection of ERα in mouse endometrium after eCG/hCG treatment; type: in vivo; settings: day 4 after vaginal plug, VA 200 mg/kg BW i.p. daily alone, or NAC 100 + VA 100 mg/kg BW
From the text: as §1, §2, §3

Structure (SMILES)	excessive phosphorylation of pERK (exogenous gonadotropin-induced pERK overexpression) (pERK)	toxicity to fetal development after implantation ([1]; BGJ398 100 μM, 5 μL via uterine horn on day 3)	number of implantation sites compared with control group (exogenous gonadotropin only) [2]	effect on implantation and live birth, alone or in synergy with NAC/VA [2]	live births compared with control group (exogenous gonadotropin only) [1]	Estrus detection rate (%) (Gilts)	Farrowing rate (%) (Gilts)	Pregnancy Rate (%) (Gilts)	female pig farrowing rate compared with batch farrowing with FTAI (control group) (Gilts)	female pig pregnancy rate compared with batch farrowing with FTAI (control group) (Gilts)	expression of ERα (exogenous gonadotropin-induced ERα overexpression) (ERα)
CCN1CCN(c2ccc(Nc3cc(N(C)C(=O)Nc4c(Cl)c(OC)cc(OC)c4Cl)ncn3)cc2)CC1 [BGJ398]	significantly inhibit	highly toxic; also recorded: negatively affect fetal development; also recorded: fetus regressed	significantly higher; also recorded: significantly increase								
O=C1O[C@H]([C@@H](O)CO)C(O)=C1O [VC, vitamin C]				do not work well							
COc1ccc2[nH]cc(CCNC(C)=O)c2c1 [MT, melatonin]				do not work well							
CC(=O)N[C@@H](CS)C(=O)O [NAC, N-acetyl-L-cysteine]	significantly inhibit		increased to some extent		increased to some extent	88.89	81.48^b %	85.19^b %	significantly improve	significantly improve	
CC1=C(/C=C/C(C)=C/C=C/C(C)=C/CO)C(C)(C)CCC1 [VA, vitamin A]			increased to some extent		increased to some extent	93.75	83.33^b %	89.58^b %	significantly improve	significantly improve	significantly inhibits
